“And” between values parts separate entries of the source, which are not always exact repeats. Equal entries are not always repeated. Where two headings read alike, the source gives them in different places. Values belong to the compound of their own block, whether it stands above or below them.
Assay: Mouse plasma and brain pharmacokinetics, IP administration
Type: in vivo
Conditions: for concentration at 0.25 h / concentration at 0.5 h / concentration at 1 h / concentration at 2 h / concentration at 4 h: intraperitoneal; for AUC: read-out: AUC0.25–4 h brain; for AUC(0-t): read-out: AUC0.25–4 h plasma (AUCLAST)
Protocol: IACUC-approved protocols and animal welfare regulations outlined in the “Guide for the Care and Use of Laboratory Animals” were both followed during the pharmacokinetic evaluation of all compounds. In vivo analysis was performed by Pharmaron (IP administration, Irvine, CA) and Sai Life (IV administration, Hinjewadi Pune, Pune, India).
A group (n = 15) of fed, male C57BL/6 mice ∼6 to 8 weeks of age was injected IP with 10 mg/kg (1 mg/mL) of drug using 50% PEG400 in water as a vehicle. Samples were collected from the blood and brain at 0.25, 0.5, 1, 2, and 4 h after administration (3 mice per time point) following CO2 anesthesia. Collection from the brain was performed as follows: the mouse is terminally anaesthetized via rising concentration of CO2 and as much blood is removed as possible via cardiac puncture. The cardiac puncture is done by opening the chest cavity to expose the heart, cutting an incision in the right auricle using surgical scissors, and finally injecting a saline solution (∼10 mL) slowly into the left ventricle via a syringe. The mouse is placed head down at a 45° angle to facilitate blood removal. After perfusion, the skull is opened and the brain is removed. The whole brain is washed with saline, dried with surgical gauze, placed in tared tubes, and stored at −75 °C before analysis. For plasma sample preparation at the 0.25–2 h time points, 15 μL of blank solution, 30 μL of plasma sample, and 150 μL were added sequentially for protein precipitation. After centrifugation, 20 μL of the supernatant and 80 μL of collection buffer were combined, and thus, the final compound concentration in plasma (ng/mL) was corrected by multiplying by 5. For plasma sample preparation at the 4 h time point, 15 μL of blank solution, 30 μL of plasma sample, and 150 μL of acetonitrile were added sequentially for protein precipitation. For all brain sample preparation, 15 μL of blank solution, 30 μL of brain samples, and 150 μL of acetonitrile were added sequentially for protein precipitation. Brain samples were prepared by adding brain (g) to deionized water (mL) in a 1:4 ratio for homogenization. The mixtures were then vortexed for 30 s and subsequently centrifuged (∼4000 rpm) for 15 min. The supernatant was diluted 3-fold with water, and a 2 μL aliquot of the diluted supernatant was injected into a Shimadzu LC-30A LC-MS/MS system with a Phenomenex 2.6 μ PFP 100A column (30 mm × 2.1 mm) using verapamil as an internal standard. A gradient from 95% water (0.1% formic acid) to 95% ACN (0.1% formic acid) was run over 2 min at a flow rate of 0.6 mL/min. Brain and blood samples were collected at 15, 30, 60, 120, and 240 min from three C57Bl/6 mice at each time point. See Tables S6–S10 for 2i concentrations.

[1] = male, C57BL/6, mouse, brain, 10 mg/kg IP
[2] = male, C57BL/6, mouse, brain, 10 mg/kg IP, read-out: Tmax brain
[3] = male, C57BL/6, mouse, plasma, 10 mg/kg IP
[4] = male, C57BL/6, mouse, plasma, 10 mg/kg IP, read-out: Tmax plasma
[5] = male, C57BL/6, mouse, plasma, 10 mg/kg IP, read-out: t1/2 plasma (converted)
[6] = male, mouse, plasma, 10 mg/kg IP, C57BL/6 mice

AUC % Extrapolation brain (10 mg/kg IP): 58%
AUC % Extrapolation plasma (10 mg/kg IP): 15%
AUCINF brain (10 mg/kg IP): 151 ng·h/g
AUCLAST brain (10 mg/kg IP): 64 ng·h/g
Cmax brain (10 mg/kg IP): 0.040 µM and 23 ng/g
Cmax brain (10 mg/kg IP, C57BL/6 mice): 23 ng/mL
Brain/plasma Ratio, individual (Group 1-3) (10 mg/kg IP, 0.25 h): 0.012 and 0.019
brain calculated concentration, individual (Group 1-3) (10 mg/kg IP, 0.25 h): 17.9 ng/g and 22.6 ng/g
plasma concentration, individual (Group 1-3) (10 mg/kg IP, 0.25 hr): 1500.0 ng/mL and 1180.0 ng/mL
Brain/plasma Ratio, individual (Group 1-3) (10 mg/kg IP, 0.5 h): 0.008 and 0.023 and 0.011
brain calculated concentration, individual (Group 1-3) (10 mg/kg IP, 0.5 h): 29.1 ng/g and 18.7 ng/g
brain calculated concentration, individual (Group 1-3) (10 mg/kg IP, 1 h): 16.5 ng/g and 14.9 ng/g
plasma concentration, individual (Group 1-3) (10 mg/kg IP, 1 hr): 1270.0 ng/mL and 1170.0 ng/mL
Brain/plasma Ratio, individual (Group 1-3) (10 mg/kg IP, 2 h): 0.016 and 0.022
brain calculated concentration, individual (Group 1-3) (10 mg/kg IP, 2 h): 18.0 ng/g and 24.3 ng/g
plasma concentration, individual (Group 1-3) (10 mg/kg IP, 2 hr): 1140.0 ng/mL and 1080.0 ng/mL
Brain/plasma Ratio, individual (Group 1-3) (10 mg/kg IP, 4 h): 0.058 and 0.050 and 0.022
brain calculated concentration, individual (Group 1-3) (10 mg/kg IP, 4 h): 10.4 ng/g and 12.8 ng/g
brain concentration in brain compartment (IP administration): 40 nM
brain concentration, upper limit if restricted to extracellular space (IP administration): ≤ 200 nM
Kp at 1 h (male, C57BL/6, mouse, brain and plasma, ip, 10 mg/kg, 10 mg/kg IP, 1 h, read-out: Brain/plasma Ratio, Mean): 0.013
Kp at 2 h (male, C57BL/6, mouse, brain and plasma, ip, 10 mg/kg, 10 mg/kg IP, 2 h, read-out: Brain/plasma Ratio, Mean): 0.018
Kp at 2 h (male, C57BL/6, mouse, brain and plasma, ip, 10 mg/kg, 10 mg/kg IP, 2 h, read-out: Brain/plasma Ratio, individual (Group 1-3)): 0.015
Kp at 4 h (male, C57BL/6, mouse, brain and plasma, ip, 10 mg/kg, 10 mg/kg IP, 4 h, read-out: Brain/plasma Ratio, Mean): 0.043
concentration at 0.25 h (male, C57BL/6, mouse, brain, 10 mg/kg, 10 mg/kg IP, 0.25 h, read-out: brain calculated concentration, Mean): 17.5 ng/g
concentration at 0.25 h (male, C57BL/6, mouse, brain, 10 mg/kg, 10 mg/kg IP, 0.25 h, read-out: brain calculated concentration, individual (Group 1-3)): 12 ng/g
concentration at 0.5 h (male, C57BL/6, mouse, brain, 10 mg/kg, 10 mg/kg IP, 0.5 h, read-out: brain calculated concentration, Mean): 22.8 ng/g
concentration at 0.5 h (male, C57BL/6, mouse, brain, 10 mg/kg, 10 mg/kg IP, 0.5 h, read-out: brain calculated concentration, individual (Group 1-3)): 20.6 ng/g
concentration at 1 h (male, C57BL/6, mouse, brain, 10 mg/kg, 10 mg/kg IP, 1 h, read-out: brain calculated concentration, Mean): 14.6 ng/g
concentration at 1 h (male, C57BL/6, mouse, brain, 10 mg/kg, 10 mg/kg IP, 1 h, read-out: brain calculated concentration, individual (Group 1-3)): 12.4 ng/g
concentration at 2 h (male, C57BL/6, mouse, brain, 10 mg/kg, 10 mg/kg IP, 2 h, read-out: brain calculated concentration, Mean): 19.4 ng/g
concentration at 2 h (male, C57BL/6, mouse, brain, 10 mg/kg, 10 mg/kg IP, 2 h, read-out: brain calculated concentration, individual (Group 1-3)): 15.9 ng/g
concentration at 4 h (male, C57BL/6, mouse, brain, 10 mg/kg, 10 mg/kg IP, 4 h, read-out: brain calculated concentration, Mean): 10.9 ng/g
concentration at 4 h (male, C57BL/6, mouse, brain, 10 mg/kg, 10 mg/kg IP, 4 h, read-out: brain calculated concentration, individual (Group 1-3)): 9.5 ng/g
Kp at 0.25 h (male, C57BL/6, mouse, brain/plasma, ip, 10 mg/kg, 10 mg/kg IP, 0.25 h, read-out: Brain/plasma Ratio, Mean): 0.014
Kp at 0.25 h (male, C57BL/6, mouse, brain/plasma, ip, 10 mg/kg, 10 mg/kg IP, 0.25 h, read-out: Brain/plasma Ratio, individual (Group 1-3)): 0.01
Kp at 0.5 h (male, C57BL/6, mouse, brain/plasma, ip, 10 mg/kg, 10 mg/kg IP, 0.5 h, read-out: Brain/plasma Ratio, Mean): 0.014
Kp at 1 h (male, C57BL/6, mouse, brain/plasma, ip, 10 mg/kg, 10 mg/kg IP, 1 h, read-out: Brain/plasma Ratio, individual (Group 1-3)): 0.015
Kp (male, C57BL/6, mouse, brain/plasma, ip, 10 mg/kg, 10 mg/kg IP, read-out: Ratio_AUCLAST (Brain/plasma)): 0.02
AUC [1]: 64 ng·h/mL
Tmax [2]: 0.5 h
half-life (male, C57BL/6, mouse, brain, 10 mg/kg IP, read-out: t1/2 brain): > 4 h
concentration at 0.25 h (male, C57BL/6, mouse, plasma, 10 mg/kg, 10 mg/kg IP, 0.25 hr, read-out: plasma concentration, Mean): 1310 ng/mL
concentration at 0.25 h (male, C57BL/6, mouse, plasma, 10 mg/kg, 10 mg/kg IP, 0.25 hr, read-out: plasma concentration, individual (Group 1-3)): 1250 ng/mL
concentration at 0.5 h (male, C57BL/6, mouse, plasma, 10 mg/kg, 10 mg/kg IP, 0.5 hr, read-out: plasma concentration, Mean): 1870 ng/mL
concentration at 1 h (male, C57BL/6, mouse, plasma, 10 mg/kg, 10 mg/kg IP, 1 hr, read-out: plasma concentration, Mean): 1150 ng/mL
concentration at 1 h (male, C57BL/6, mouse, plasma, 10 mg/kg, 10 mg/kg IP, 1 hr, read-out: plasma concentration, individual (Group 1-3)): 1020 ng/mL
concentration at 2 h (male, C57BL/6, mouse, plasma, 10 mg/kg, 10 mg/kg IP, 2 hr, read-out: plasma concentration, Mean): 1090 ng/mL
concentration at 2 h (male, C57BL/6, mouse, plasma, 10 mg/kg, 10 mg/kg IP, 2 hr, read-out: plasma concentration, individual (Group 1-3)): 1060 ng/mL
concentration at 4 h (male, C57BL/6, mouse, plasma, 10 mg/kg, 10 mg/kg IP, 4 hr, read-out: plasma concentration, Mean): 319 ng/mL
Cmax [3]: 3300 nM
AUC(0-t) [3]: 3850 ng·h/mL
AUC(0-inf) (male, C57BL/6, mouse, plasma, 10 mg/kg IP, read-out: AUCINF plasma): 4550 ng·h/mL
Tmax [4]: 0.5 h
half-life [5]: 1.5 h
Cmax [6]: 1870 ng/mL
Structure (SMILES): O=C(O)CC(F)(F)C(=O)N1N=C(c2c(-c3ccc(Cl)cc3)c3ccccc3[nH]c2=O)CC1c1ccc(Cl)cc1 (centres unmarked) [2i]
plasma concentration, individual (Group 1-3) (10 mg/kg IP, 0.5 hr): 2620.0 ng/mL and 1260.0 ng/mL and 1740.0 ng/mL
plasma concentration, individual (Group 1-3) (10 mg/kg IP, 4 hr): 163.0 ng/mL and 208.0 ng/mL and 585.0 ng/mL

Cmax brain (10 mg/kg IP, C57BL/6 mice): 13 ng/mL
AUC [1]: 41 ng·h/mL
Tmax [2]: 4 h
AUC(0-t) [3]: 2270 ng·h/mL
Tmax [4]: 0.5 h
half-life [5]: 4.9 h
Cmax [6]: 815 ng/mL
Structure (SMILES): NC(=O)CC(F)(F)C(=O)N1N=C(c2c(-c3ccc(Cl)cc3)c3ccccc3[nH]c2=O)CC1c1ccc(Cl)cc1 (centres unmarked) [2k]

— article PMC10485906, “Development of a Dihydroquinoline–Pyrazoline GluN2C/2D-Selective Negative Allosteric Modulator of the N-Methyl-D-aspartate Receptor” (ACS Chemical Neuroscience, 2023)
